Source: US8673894B2 (Hoffmann-La Roche Inc., priority 2010, dated 2014)
Counter-ions that a name gives are not always drawn.

Columns and labels:
[1] = test system: Aβ40; assay: Cellular Aβ-lowering assay; format: cell-based; conditions: HEK293 cells stably expressing human APP695, Aβ40 in supernatant by ELISA after 18-20 hrs; read-out: Cellular assay Abeta40 IC50
Procedure, shortened: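 HEK293 cells stably expressing human wild-type APP695 were treated with compound for 18-20 h at 37 °C in 0.8% v/v DMSO. Secreted Aβ40 in the supernatant was measured by sandwich ELISA (Aβ40 C-terminus-specific capture, HRP-4G8 detection, TMB read at 450 nm) and quantified against a pure Aβ peptide standard curve.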

[2] = target: T1, endogenous cellular BACE2 (Rattus norvegicus, UniProt Q6IE75); assay: Assay for BACE inhibition by measuring cellular TMEM27 cleavage; format: cell-based; conditions: INS-TMEM27 (INS1e-derived) cells, shed human TMEM27 in supernatant by ELISA
T1 construct: endogenous cellular BACE2 in the Ins1e rat cell line; endogenous in cells; host or cells: INS-TMEM27 (INS1e-derived rat insulinoma cell line with doxycycline-inducible full-length human TMEM27)
T1 sequence (Q6IE75 63-514): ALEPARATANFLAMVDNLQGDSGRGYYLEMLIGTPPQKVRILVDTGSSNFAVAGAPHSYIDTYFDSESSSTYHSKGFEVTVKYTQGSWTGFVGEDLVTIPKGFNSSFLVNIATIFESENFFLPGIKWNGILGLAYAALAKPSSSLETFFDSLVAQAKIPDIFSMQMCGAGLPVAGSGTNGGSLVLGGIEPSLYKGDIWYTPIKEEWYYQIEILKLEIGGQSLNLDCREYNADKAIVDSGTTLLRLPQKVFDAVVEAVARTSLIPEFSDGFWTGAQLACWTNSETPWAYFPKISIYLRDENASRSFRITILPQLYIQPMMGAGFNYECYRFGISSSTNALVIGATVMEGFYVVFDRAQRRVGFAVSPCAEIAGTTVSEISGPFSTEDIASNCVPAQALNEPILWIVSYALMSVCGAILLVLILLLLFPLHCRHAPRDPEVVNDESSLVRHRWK
Procedure, shortened: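 INS1e rat cells with doxycycline-inducible human TMEM27 get inhibitor 2 h before doxycycline (500 ng/ml final), then 46 h further at 37° C. Shed TMEM27 in the supernatant is measured by sandwich ELISA, and the EC50 comes from a curve fit of the ELISA signal.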

SMILES	IC50 [1] [nM]	IC50 [2] [nM]
CC[C@]1(c2cc(NC(=O)c3ncc(Cl)cn3)ccc2F)N=C(N)COCC1(F)F [Example 80, (R)-N-(3-(3-Amino-5-ethyl-6,6-difluoro-2,5,6,7-tetrahydro-1,4-oxazepin-5-yl)-4-fluorophenyl)-5-chloropyrimidine-2-carboxamide]	23	55.9
CC[C@]1(c2cc(NC(=O)c3cccnn3)ccc2F)N=C(N)COCC1(F)F [Example 81, (R)-N-(3-(3-Amino-5-ethyl-6,6-difluoro-2,5,6,7-tetrahydro-1,4-oxazepin-5-yl)-4-fluorophenyl)pyridazine-3-carboxamide]	5680	421000
CC[C@]1(c2cc(NC(=O)c3ccc(Cl)cn3)ccc2F)N=C(N)COCC1(F)F [Example 82, (R)-N-(3-(3-Amino-5-ethyl-6,6-difluoro-2,5,6,7-tetrahydro-1,4-oxazepin-5-yl)-4-fluorophenyl)-5-chloropicolinamide]	40	36.2
CC[C@]1(c2cc(NC(=O)c3ncc(Cl)cc3Cl)ccc2F)N=C(N)COCC1(F)F [Example 83, (R)-N-(3-(3-Amino-5-ethyl-6,6-difluoro-2,5,6,7-tetrahydro-1,4-oxazepin-5-yl)-4-fluorophenyl)-3,5-dichloropicolinamide]	15	19.7
CC[C@]1(c2cc(NC(=O)c3ncc(F)cc3Cl)ccc2F)N=C(N)COCC1(F)F [Example 84, (R)-N-(3-(3-Amino-5-ethyl-6,6-difluoro-2,5,6,7-tetrahydro-1,4-oxazepin-5-yl)-4-fluorophenyl)-3-chloro-5-fluoropicolinamide]	130	60.2
CC[C@]1(c2cc(NC(=O)c3nn(C)cc3Cl)ccc2F)N=C(N)COCC1(F)F [Example 85, (R)-N-(3-(3-Amino-5-ethyl-6,6-difluoro-2,5,6,7-tetrahydro-1,4-oxazepin-5-yl)-4-fluorophenyl)-4-chloro-1-methyl-1H-pyrazole-3-carboxamide]	280	29.2
CC[C@]1(c2cc(NC(=O)c3n[nH]cc3Cl)ccc2F)N=C(N)COCC1(F)F [Example 86, (R)-N-(3-(3-Amino-5-ethyl-6,6-difluoro-2,5,6,7-tetrahydro-1,4-oxazepin-5-yl)-4-fluorophenyl)-4-chloro-1H-pyrazole-3-carboxamide]	370	491
CC[C@]1(c2cc(NC(=O)c3ncoc3C)ccc2F)N=C(N)COCC1(F)F [Example 87, (R)-N-(3-(3-amino-5-ethyl-6,6-difluoro-2,5,6,7-tetrahydro-1,4-oxazepin-5-yl)-4-fluorophenyl)-5-methyloxazole-4-carboxamide]	1120	134
C[C@]1(c2cc(NC(=O)c3ncc(C(F)(F)F)cc3F)ccc2F)N=C(N)COCC1(F)F [Example 88, (R)-N-(3-(3-Amino-6,6-difluoro-5-methyl-2,5,6,7-tetrahydro-1,4-oxazepin-5-yl)-4-fluorophenyl)-3-fluoro-5-(trifluoromethyl)picolinamide formate]	5	354
CCn1cc(Cl)c(C(=O)Nc2ccc(F)c([C@@]3(CC)N=C(N)COCC3(F)F)c2)n1 [Example 91, (R)-N-(3-(3-Amino-5-ethyl-6,6-difluoro-2,5,6,7-tetrahydro-1,4-oxazepin-5-yl)-4-fluorophenyl)-4-chloro-1-ethyl-1H-pyrazole-3-carboxamide]	1230	453
CC[C@]1(c2cc(NC(=O)c3n[nH]cc3C)ccc2F)N=C(N)COCC1(F)F [Example 92, (R)-N-(3-(3-Amino-5-ethyl-6,6-difluoro-2,5,6,7-tetrahydro-1,4-oxazepin-5-yl)-4-fluorophenyl)-4-methyl-1H-pyrazole-3-carboxamide]	2800	731
CCc1n[nH]c(C(=O)Nc2ccc(F)c([C@@]3(CC)N=C(N)COCC3(F)F)c2)c1C [Example 93, (R)-N-(3-(3-Amino-5-ethyl-6,6-difluoro-2,5,6,7-tetrahydro-1,4-oxazepin-5-yl)-4-fluorophenyl)-3-ethyl-4-methyl-1H-pyrazole-5-carboxamide]	510	155000
CCn1cc(Cl)c(C(=O)Nc2ccc(F)c([C@@]3(C)N=C(N)COCC3(F)F)c2)n1 [Example 95, (R)-N-(3-(3-Amino-6,6-difluoro-5-methyl-2,5,6,7-tetrahydro-1,4-oxazepin-5-yl)-4-fluorophenyl)-4-chloro-1-ethyl-1H-pyrazole-3-carboxamide]	22	66.3
CC[C@]1(c2cc(NC(=O)c3nc[nH]c3C)ccc2F)N=C(N)COCC1(F)F [Example 100, (R)-N-(3-(3-Amino-5-ethyl-6,6-difluoro-2,5,6,7-tetrahydro-1,4-oxazepin-5-yl)-4-fluorophenyl)-5-methyl-1H-imidazole-4-carboxamide]	2800	516
CC[C@]1(c2cc(NC(=O)c3ncc(F)cc3C)ccc2F)N=C(N)COCC1(F)F [Example 102, (R)-N-(3-(3-Amino-5-ethyl-6,6-difluoro-2,5,6,7-tetrahydro-1,4-oxazepin-5-yl)-4-fluorophenyl)-5-fluoro-3-methylpicolinamide]	33	2200
Cc1conc1C(=O)Nc1ccc(F)c([C@@]2(C)N=C(N)COCC2(F)F)c1 [Example 104, (R)-N(R)-N-(3-(3-Amino-6,6-difluoro-5-methyl-2,5,6,7-tetrahydro-1,4-oxazepin-5-yl)-4-fluorophenyl)-4-methylisoxazole-3-carboxamide]	160	95.6

More lines, now with the values ahead:

IC50 [1] [nM]	IC50 [2] [nM]	SMILES
5	85.3	COc1ccc(C(=O)Nc2ccc(F)c([C@@]3(C)N=C(N)COCC3(F)F)c2)nc1 [Example 90, (R)-N-(3-(3-Amino-6,6-difluoro-5-methyl-2,5,6,7-tetrahydro-1,4-oxazepin-5-yl)-4-fluorophenyl)-5-methoxypicolinamide formate]
10	24.3	Cc1ccc(C(=O)Nc2ccc(F)c([C@@]3(C)N=C(N)COCC3(F)F)c2)nc1 [Example 94, (R)-N-(3-(3-Amino-6,6-difluoro-5-methyl-2,5,6,7-tetrahydro-1,4-oxazepin-5-yl)-4-fluorophenyl)-5-methylpicolinamide formate]
57	295	C[C@]1(c2cc(NC(=O)c3n[nH]cc3Cl)ccc2F)N=C(N)COCC1(F)F [Example 96, (R)-N-(3-(3-amino-6,6-difluoro-5-methyl-2,5,6,7-tetrahydro-1,4-oxazepin-5-yl)-4-fluorophenyl)-4-chloro-1H-pyrazole-3-carboxamide]
220	444	Cc1c[nH]nc1C(=O)Nc1ccc(F)c([C@@]2(C)N=C(N)COCC2(F)F)c1 [Example 97, (R)-N-(3-(3-Amino-6,6-difluoro-5-methyl-2,5,6,7-tetrahydro-1,4-oxazepin-5-yl)-4-fluorophenyl)-4-methyl-1H-pyrazole-3-carboxamide]
39	131	Cc1ocnc1C(=O)Nc1ccc(F)c([C@@]2(C)N=C(N)COCC2(F)F)c1 [Example 98, (R)-N-(3-(3-Amino-6,6-difluoro-5-methyl-2,5,6,7-tetrahydro-1,4-oxazepin-5-yl)-4-fluorophenyl)-5-methyloxazole-4-carboxamide]
130	118	CCc1ocnc1C(=O)Nc1ccc(F)c([C@@]2(C)N=C(N)COCC2(F)F)c1 [Example 99, (R)-N-(3-(3-Amino-6,6-difluoro-5-methyl-2,5,6,7-tetrahydro-1,4-oxazepin-5-yl)-4-fluorophenyl)-5-ethyloxazole-4-carboxamide]
12	1110	C[C@]1(c2cc(NC(=O)c3cnc(C(F)(F)F)cn3)ccc2F)N=C(N)COCC1(F)F [Example 101, (R)-N-(3-(3-Amino-6,6-difluoro-5-methyl-2,5,6,7-tetrahydro-1,4-oxazepin-5-yl)-4-fluorophenyl)-5-(trifluoromethyl)pyrazine-2-carboxamide formate]
2.9	307	C[C@]1(c2cc(NC(=O)c3cnc(OCF)cn3)ccc2F)N=C(N)COCC1(F)F [Example 103, (R)-N-(3-(3-Amino-6,6-difluoro-5-methyl-2,5,6,7-tetrahydro-1,4-oxazepin-5-yl)-4-fluorophenyl)-5-(fluoromethoxy)pyrazine-2-carboxamide formate]
13	378	C[C@]1(c2cc(NC(=O)c3cnc(C(F)F)cn3)ccc2F)N=C(N)COCC1(F)F [Example 105, (R)-N-(3-(3-Amino-6,6-difluoro-5-methyl-2,5,6,7-tetrahydro-1,4-oxazepin-5-yl)-4-fluorophenyl)-5-(difluoromethyl)pyrazine-2-carboxamide formate]
